Laboratory results reported in PubChem BioAssay AID2060882 (Molecular Pharmacology Branch, DTP, NCI, 2025).
Values belong to the compound of their own block, whether it stands above or below them.

Tested on: 898857-211-R-J1-PDC complex spheroids, growth % test/control
Test: Anticancer human tumor 898857-211-R-J1-PDC patient-derived melanoma cell line growth inhibition [RAS]
Conditions: for viability, T/C: stronger effect = lower value
Outline: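 Tumour cells grown as complex spheroids with HUVEC endothelial cells and mesenchymal stem cells, treated with RAS pathway inhibitor combinations. Each agent spans half-log steps from near clinical Cmax, or 10 microM where Cmax is unknown.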
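Note: spheroids exposed to compound for seven days before readout.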
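Throughout, for viability, T/C: 100% = DMSO vehicle control wells.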

IC50 (curve of first compound, second compound 0.0316 µM): 1070 nM
IC50 (curve of first compound, second compound 0.1 µM): 1210 nM
IC50 (curve of first compound, second compound 0.316 µM): 1240 nM
IC50 (curve of first compound, second compound 1 µM): 1260 nM
IC50 (curve of first compound, second compound 3.16 µM): 1090 nM
IC50 (curve of first compound, second compound 10 µM): 32 nM
SMILES: CCC(CC)c1cc(NC2CCC(N)C2)n2nccc2n1 (stereo not given) + C#Cc1c(F)ccc2cc(O)cc(-c3ncc4c(N5CC6CCC(C5)N6)nc(OCC56CCCN5CC(F)C6)nc4c3F)c12
viability, T/C (second compound 0.0316 µM, first compound 0.0316 µM): 113%
viability, T/C (second compound 0.0316 µM, first compound 0.1 µM): 105%
viability, T/C (second compound 0.0316 µM, first compound 0.316 µM): 97.6%
viability, T/C (second compound 0.0316 µM, first compound 1 µM): 54.5%
viability, T/C (second compound 0.0316 µM, first compound 3.16 µM): 1.81%
viability, T/C (second compound 0.0316 µM, first compound 10 µM): 0.32%
viability, T/C (second compound 0.1 µM, first compound 0.0316 µM): 119%
viability, T/C (second compound 0.1 µM, first compound 0.1 µM): 98.3%
viability, T/C (second compound 0.1 µM, first compound 0.316 µM): 101%
viability, T/C (second compound 0.1 µM, first compound 1 µM): 60%
viability, T/C (second compound 0.1 µM, first compound 3.16 µM): 2.14%
viability, T/C (second compound 0.1 µM, first compound 10 µM): 0.33%
viability, T/C (second compound 0.316 µM, first compound 0.0316 µM): 99.7%
viability, T/C (second compound 0.316 µM, first compound 0.1 µM): 107%
viability, T/C (second compound 0.316 µM, first compound 0.316 µM): 93.4%
viability, T/C (second compound 0.316 µM, first compound 1 µM): 61.6%
viability, T/C (second compound 0.316 µM, first compound 3.16 µM): 1.82%
viability, T/C (second compound 0.316 µM, first compound 10 µM): 0.52%
viability, T/C (second compound 1 µM, first compound 0.0316 µM): 103%
viability, T/C (second compound 1 µM, first compound 0.1 µM): 121%
viability, T/C (second compound 1 µM, first compound 0.316 µM): 105%
viability, T/C (second compound 1 µM, first compound 1 µM): 61.9%
viability, T/C (second compound 1 µM, first compound 3.16 µM): 2.03%
viability, T/C (second compound 1 µM, first compound 10 µM): 0.38%
viability, T/C (second compound 3.16 µM, first compound 0.0316 µM): 105%
viability, T/C (second compound 3.16 µM, first compound 0.1 µM): 97.1%
viability, T/C (second compound 3.16 µM, first compound 0.316 µM): 92.5%
viability, T/C (second compound 3.16 µM, first compound 1 µM): 55%
viability, T/C (second compound 3.16 µM, first compound 3.16 µM): 1.64%
viability, T/C (second compound 3.16 µM, first compound 10 µM): 0.34%
viability, T/C (second compound 10 µM, first compound 0.0316 µM): 52.9%
viability, T/C (second compound 10 µM, first compound 0.1 µM): 32.4%
viability, T/C (second compound 10 µM, first compound 0.316 µM): 30%
viability, T/C (second compound 10 µM, first compound 1 µM): 25.2%
viability, T/C (second compound 10 µM, first compound 3.16 µM): 0.4%
viability, T/C (second compound 10 µM, first compound 10 µM): 0.18%

IC50 (curve of compound): > 10000 nM
SMILES: CC(C)NCC(C(=O)N1CCN(c2ncnc3c2C(C)CC3O)CC1)c1ccc(Cl)cc1 (stereo not given)
viability, T/C (compound 0.1 µM): 101% [middle of 4 runs]
viability, T/C (compound 0.316 µM): 104% [middle of 4 runs]
viability, T/C (compound 1 µM): 93.2% [middle of 4 runs]
viability, T/C (compound 3.16 µM): 78.1% [middle of 4 runs]
viability, T/C (compound 10 µM): 58.9% [middle of 4 runs]

IC50 (curve of first compound, second compound 0.000949 µM): > 10000 nM
IC50 (curve of first compound, second compound 0.003 µM): > 10000 nM
IC50 (curve of first compound, second compound 0.00949 µM): 6620 nM
IC50 (curve of first compound, second compound 0.03 µM): 9250 nM
IC50 (curve of first compound, second compound 0.0949 µM): 9600 nM
IC50 (curve of first compound, second compound 0.3 µM): 8390 nM
SMILES: CC(Nc1ccc2c(c1)OCCn1cc(N3C(=O)OCC3C(F)F)nc1-2)C(N)=O (stereo not given) + CCn1c(-c2cc(N3CCN(C)CC3)cnc2C(C)OC)c2c3cc(ccc31)-c1csc(n1)CC(NC(=O)C1CC1C)C(=O)N1CCCC(N1)C(=O)OCC(C)(C)C2
viability, T/C (second compound 0.000949 µM, first compound 0.0316 µM): 102%
viability, T/C (second compound 0.000949 µM, first compound 0.1 µM): 90.3%
viability, T/C (second compound 0.000949 µM, first compound 0.316 µM): 96%
viability, T/C (second compound 0.000949 µM, first compound 1 µM): 73.8%
viability, T/C (second compound 0.000949 µM, first compound 3.16 µM): 66%
viability, T/C (second compound 0.000949 µM, first compound 10 µM): 53.2%
viability, T/C (second compound 0.003 µM, first compound 0.0316 µM): 93.4%
viability, T/C (second compound 0.003 µM, first compound 0.1 µM): 95.7%
viability, T/C (second compound 0.003 µM, first compound 0.316 µM): 83.6%
viability, T/C (second compound 0.003 µM, first compound 1 µM): 76.4%
viability, T/C (second compound 0.003 µM, first compound 3.16 µM): 73.3%
viability, T/C (second compound 0.003 µM, first compound 10 µM): 52.2%
viability, T/C (second compound 0.00949 µM, first compound 0.0316 µM): 82.5%
viability, T/C (second compound 0.00949 µM, first compound 0.1 µM): 80.4%
viability, T/C (second compound 0.00949 µM, first compound 0.316 µM): 80.2%
viability, T/C (second compound 0.00949 µM, first compound 1 µM): 73.5%
viability, T/C (second compound 0.00949 µM, first compound 3.16 µM): 63%
viability, T/C (second compound 0.00949 µM, first compound 10 µM): 42.7%
viability, T/C (second compound 0.03 µM, first compound 0.0316 µM): 103%
viability, T/C (second compound 0.03 µM, first compound 0.1 µM): 91.5%
viability, T/C (second compound 0.03 µM, first compound 0.316 µM): 80.9%
viability, T/C (second compound 0.03 µM, first compound 1 µM): 72.6%
viability, T/C (second compound 0.03 µM, first compound 3.16 µM): 68.5%
viability, T/C (second compound 0.03 µM, first compound 10 µM): 45.5%
viability, T/C (second compound 0.0949 µM, first compound 0.0316 µM): 106%
viability, T/C (second compound 0.0949 µM, first compound 0.1 µM): 85.1%
viability, T/C (second compound 0.0949 µM, first compound 0.316 µM): 95.3%
viability, T/C (second compound 0.0949 µM, first compound 1 µM): 80.5%
viability, T/C (second compound 0.0949 µM, first compound 3.16 µM): 67.8%
viability, T/C (second compound 0.0949 µM, first compound 10 µM): 48.1%
viability, T/C (second compound 0.3 µM, first compound 0.0316 µM): 98.3%
viability, T/C (second compound 0.3 µM, first compound 0.1 µM): 99.3%
viability, T/C (second compound 0.3 µM, first compound 0.316 µM): 84.2%
viability, T/C (second compound 0.3 µM, first compound 1 µM): 71.7%
viability, T/C (second compound 0.3 µM, first compound 3.16 µM): 66.1%
viability, T/C (second compound 0.3 µM, first compound 10 µM): 46.4%
